Measured values from patent US11629141B2, “Proteasome inhibitors and uses thereof” (CORNELL UNIVERSITY, priority 2015, dated 2023).
Read-outs that look alike come from different tables or passages of the source.

Test system: Plasmodium falciparum
Test: Growth of Plasmodium falciparum in red blood cells (SYBR Green, 72 hours)
Assay type: cell-based
Protocol: Continuous in vitro cultures of Plasmodium falciparum: were maintained in human red blood cells (RBC) diluted to a hematocrit of 5% in RPMI 1640 medium with HEPES and Hypoxanthine and completed with 0.5% Albumax II (Invitrogen), 0.25% sodium bicarbonate, and 0.1 mg/ml gentamicin. Parasites were incubated at 37° C. in a gas mixture of 5% oxygen, 5% carbon dioxide, and 90% nitrogen.
Parasite sensitivity to novel compounds were determined using a SYBR Green (Invitrogen S1046) drug assay protocol. P. falciparum of various clinic stains were cultured with compounds at concentrations in a series of dilution in a clear, sterile 96-well plate for 72 hours. Subsequently, 150 μl of the cultures were transferred to a black 96-well plate and placed in the freezer for red blood cell lysis. The plates were thawed and suspended in a Sybr Green Lysis buffer. GraphPad Prism was used to analyze the raw data collected […]. Drug concentrations were converted to logarithms, normalized, and then curve fitted by non-linear regression to obtain EC50 values.
Plasmodium falciparum: parasites were cultured in human red cells. Drug assays were run in 96 well plates at a total volume of 200 μl. Assays were set up at a starting parasitemia (percent of infected red cells) of 0.5%. Test compounds were plated at concentrations of 2778 nM to 0.4 nM. The test plates were grown under standard low oxygen conditions at 37° C. for 72 hours. At that time the plates were prepared for growth determination, first the plates were frozen and thawed to lyse the red blood cells, 150 μl of the lysed thawed culture was transferred to a black 96 well plate, and mixed in a lysis buffer with SYBR green DNA dye. The fluorescence of each well was recorded in a plate reader with excitation wavelength 490 nm and emission wavelength 530 nm and normalized relative to DMSO control. The EC50s were determined using Prism software.

CC(C)(C)NC(=O)C[C@H](NC(=O)CCc1ccccc1)C(=O)NCCNC(=O)c1cccc(-c2ccccc2)c1 [PKS21004]
EC50 (D6, Erythrocyte, read-out: EC50s against P. falciparum strain D6): 4 nM
EC50 (DD2, Erythrocyte, read-out: EC50s against P. falciparum strain Dd2): 4.8 nM
EC50 (Erythrocyte, P.f. 3D7, growth in red blood cells, read-out: EC50 (nM) (P.f.)): 4.6 nM
EC50 (Erythrocyte, read-out: EC50s against P. falciparum strain IPC 3663): 6 nM
EC50 (Erythrocyte, read-out: EC50s against P. falciparum strain IPC 4884): 5.2 nM
EC50 (Erythrocyte, read-out: EC50s against P. falciparum strain IPC 4912): 5.8 nM
EC50 (Erythrocyte, read-out: EC50s against P. falciparum strain IPC 5188): 1.5 nM
EC50 (Erythrocyte, read-out: EC50s against P. falciparum strain Sb1-a6): 4.8 nM
EC50 (Erythrocyte, read-out: EC50s against P. falciparum strain V1S): 1.7 nM
EC50 (HB3, Erythrocyte, read-out: EC50s against P. falciparum strain HB3): 10 nM
